Results from ChEMBL document CHEMBL4145503, “Design, synthesis and in vitro biological evaluation of novel [1,2,3]triazolo[4,5-d]pyrimidine derivatives containing a thiosemicarbazide moiety” (Eur J Med Chem, 2018).

Key:
Format in all cases: functional, cell-based
MGC-803 = assay: Antiproliferative activity against human MGC803 cells after 72 hrs by MTT assay; conditions: MGC-803, 72 h
PC-3 = assay: Antiproliferative activity against human PC3 cells after 72 hrs by MTT assay; conditions: PC-3, 72 h
NCI-H1650 = assay: Antiproliferative activity against human NCI-H1650 cells after 72 hrs by MTT assay; conditions: NCI-H1650, 72 h

`CCCSc1nc(NNC(=S)NCc2ccccc2)c2nnn(CCc3cccs3)c2n1` gave an IC50 (MGC-803) of 41.1 µM, an IC50 (PC-3) greater than 64 µM and an IC50 (NCI-H1650) greater than 64 µM.

Work on `CCCSc1nc(NNC(=S)NCc2ccccc2)c2nnn(CCc3c[nH]c4ccccc34)c2n1` yielded an IC50 (MGC-803) of 30.3 µM, an IC50 (PC-3) of 15.3 µM and an IC50 (NCI-H1650) greater than 64 µM.

For `O=c1[nH]cc(F)c(=O)[nH]1` [FLUOROURACIL], the IC50 (MGC-803) was 7.86 µM, the IC50 (PC-3) was 27.6 µM and the IC50 (NCI-H1650) was 14.6 µM.
